Columns and labels:
serum IgE = test: Serum IgE (clinical laboratory or ELISA); type: in vivo, human; conditions: asthmatics on inhaled corticosteroids (N = 51) vs No ICS (N = 49)
Protocol: Serum IgE was measured by UCSF clinical laboratories or by ELISA using a human serum IgE ELISA kit according to manufacturer's instructions (Bethyl Laboratories). Serum CEA was measured using a human serum CEA ELISA kit according to manufacturer's instructions (Alpco Diagnostics). We developed an electrochemiluminescent assay (ECLA) to measure serum periostin using anti-periostin antibodies (R&D systems). Briefly, monoclonal anti-periostin was coated onto plates at 1.5 micrograms/ml in sodium carbonate buffer, pH 9.6 overnight at 4° C. Plates were blocked in assay buffer (1×PBS pH 7.4, 0.35 M NaCl, 0.5% BSA, 0.05% Tween 20, 0.25% CHAPS, 5 mM EDTA, 15PPM Proclin)+3% BSA for 2 hours at room temperature, then washed 4× with TBST (Tris-buffered saline+0.1% Tween-20). Serum was diluted 1:5 in assay buffer and incubated with agitation at room temperature for 2 h, then washed 4× with TBST. Recombinant periostin (R&D Systems) was used to establish a standard range. […] Reading buffer (Meso Scale Devices) was added and electrochemiluminescence was read (Meso Scale Devices). […] In addition, we measured IgE and YKL-40, a serum marker previously described to be elevated in some asthmatics, in these same sera. […]

[1] = tested on: IL-4/13 signature genes in bronchial airway epithelium; test: Microarray analysis of bronchial epithelial brushings at baseline and after one week of ICS treatment; type: in vivo, human
Source text: (A) Periostin expression; (B) PRR4 expression; (C) RUNX2 expression.
We studied biological samples stored in the Airway Tissue Bank at the University of California, San Francisco (UCSF) that had been collected during bronchoscopy performed for research purposes in healthy and asthmatic volunteers. Research bronchoscopy had included collection of epithelial brushings, bronchoalveolar lavage (BAL) and bronchial biopsies using specific methods previously described. BAL cell counts and differentials had been performed and databased, and macrophages had been sorted from BAL fluid using flow cytometry. Four to six bronchial biopsies had been obtained from 2nd-through 5th-order carinae (contralateral to the brushing site), formalin-fixed, and then paraffin-embedded in isotropic uniform random orientation to enable quantitative measures of inflammation and remodeling using methods of design-based stereology. An additional 2 bronchial biopsies had been homogenized and processed for RNA using the Qiagen RNeasy minikit (Qiagen Inc., Valencia, Calif.). RNA extracted from epithelial brushings, homogenates of bronchial biopsies, and lavage macrophages had been quality assured and aliquoted for future microrray- and PCR-based gene profiling. All research bronchoscopy studies had been approved by the UCSF Committee on Human Research (CHR), written informed consent had been obtained from all subjects, and all studies had been performed in accordance with the principles expressed in the Declaration of Helsinki The Airway Tissue Bank procedures were also reviewed and approved by UCSF's CHR. Samples of epithelial brushings and macrophages from this tissue bank have been used in previously reported studies. Most recently, microarray analyses of differentially expressed genes in epithelial brushings in asthmatic subjects have been reported by us.
Thirty-two of the subjects with asthma had also been enrolled in a double-blind randomized controlled clinical trial of inhaled fluticasone (500 μg, twice daily, N=19) or matched placebo (N=13) (ClinicalTrials.gov Identifier: NCT00187499). The trial was designed to determine the effects of inhaled steroid (fluticasone) on airway gene expression and to relate gene expression changes to improvements in lung function. The asthma subjects in the clinical trial had undergone baseline bronchoscopy and had been randomized to receive study medication before undergoing repeat bronchoscopy one week later after starting study drug. Asthma subjects continued study medication for a total of 8 weeks. Healthy control subjects and smokers were enrolled in one of three cross-sectional studies, which comprised two visits each, the first for characterization and the second for bronchoscopy 1 week later. Thirty-five subjects had adequate baseline bronchoscopy, and 32 had RNA available from epithelial brushings at both bronchoscopies. Lung function was measured (by spirometry) after 4 weeks and 8 weeks on study medication, and a final spirometry was completed after a one week run-out. […]
Microarray data from mild-moderate non-smoking asthma patients and healthy non-smoking subjects were obtained from a previous study as described. […] Microarray data was analysed in the present study to determine whether genes were differentially regulated within the asthmatic group. Also, the microarray data was analyzed to determine whether other genes were co-regulated with top asthma-related, IL-13 induced genes. […]

[2] = 19 subjects, one week of ICS treatment, vast majority of genes
[3] = individual subjects after one week of ICS treatment

In the case of `CCC(=O)O[C@]1(C(=O)SCF)[C@H](C)C[C@H]2[C@@H]3C[C@H](F)C4=CC(=O)C=C[C@]4(C)[C@@]3(F)[C@@H](O)C[C@@]21C` [fluticasone, fluticasone propionate], the “IgE, level of serum biomarker, median (range)” value (serum IgE) is reported as 132 (1-2098) IU/ml, the “Expression of IL-4/13 signature genes (Table 2) in asthmatic bronchial airway epithelium” value [1, 2] is reported as “significantly downregulated” and the “Expression of IL-13 signature genes (Table 9) in asthmatic bronchial airway epithelium” value [1, 2] is reported as “significantly downregulated”. The “PRR4 expression in bronchial epithelial brushings” value [1, 3] was “not substantially downregulated”, the “RUNX2 expression in bronchial epithelial brushings” value [1, 3] was “not substantially downregulated” and the “Hierarchical clustering by periostin, CLCA1 and serpinB2 expression in bronchial epithelium” value ([1]; subjects with IL-13 high asthma at baseline, after one week of fluticasone treatment) was “clustered with subjects who were IL-13 low at baseline”.

— US20110123530A1, “COMPOSITIONS AND METHODS FOR TREATING AND DIAGNOSING ASTHMA” (priority 2008, published 2011)
